Data reported in patent publication US9095589B2, “Chirally pure isomers of itraconazole for use as angiogenesis inhibitors” (Johns Hopkins University, priority 2007, dated 2015).
Entries after “also recorded” stand apart in the source; their conditions may differ. Where two headings read alike, the source gives them in different places.

Columns and labels:
[1] = tested on: HUVEC; assay: HUVEC Proliferation Assay of itraconazole stereoisomers; format: cell-based, human
Experimental: HUVEC were plated in a 96-well plate at a density of 2000 cells/well 199 μL media. After recovering overnight, cells were incubated for 24 hours with drugs added from 200×DMSO stocks. Next, cells were incubated with 0.9 μCi of [^3H]-thymidine for 6 h, washed once with PBS, trypsinized, and transferred to filtermats (Wallac) using a Mach III M Harvester 96 (Tomtec). The filtermats were then dried overnight. Using a 1450 Microbeta apparatus (Wallac), the amount of [^3H] at each position on the filtermat was determined by scintillation counting. Counts from vehicle only treated controls were used to normalize for maximum proliferation. Experiments were conducted in triplicate with multiple technical replicates for each data point. A four parameter logistic regression was used to determine IC50 values (GraphPad Prism [v4.03]).
(§1) After the quality of all stereoisomers was confirmed, the potency of each stereoisomer against HUVEC proliferation and fungal growth was determined (FIG. 7). HUVEC were incubated with drug or vehicle alone for 24 hours and then pulsed for 6 hours with [^3H]-thymidine, the incorporation of which was taken as a readout of cell proliferation. Inhibition of fungal growth was assayed by incubating five yeast strains with 2-fold serial dilutions of each stereoisomer for 30-60 hours depending on the strain, and then measuring the OD600 of the culture to quantitate growth. The minimum concentration capable of inhibiting growth by 80% (MIC80) was determined.

[2] = tested on: five yeast strains; assay: Fungal Susceptibility Assays (MIC80); format: cell-based, C. glabrata, C. neoformans, S. cerevisiae, C. albicans; settings: four out of five strains
From the text: (§2) Pooled HUVEC and EGM-2 bullet kits were purchased from Lonza. Powdered RPMI 1640 media with L-glutamine and without sodium bicarbonate was purchased from Gibco. Amino acids, uracil, and agar were purchased from Sigma and morpholinepropanesulfonic acid (MOPS) was purchased from Fisher. Dimethyl Sulfoxide (DMSO) was purchased from J. T. Baker. C. glabrata strains BG1 (J. Infect. Dis. 1996, 173, 425-431) and BG2 (Genetics 1999, 151, 979-987), C. neoformans H99 (Am. J. Pathol. 1980, 101, 177-193), S. cerevisiae BY4741 (MATa, ura3, his3, leu2, met15), and C. albicans (ATCC 10261) were used.
Fungi were grown overnight in 5 mL YES supplemented 225 mg/L adenine, histidine, leucine, uracil, and lysine (supplemented YES) at 30° C. with shaking. […] Abs600 was measured using a plate reader (Bio-Tek Synergy HT) after vigorous shaking for 45 seconds to resuspend the cells. The background absorbance from noninoculated wells was subtracted and the absorbance of test wells was divided by that of wells treated with vehicle alone. […]
After the quality of all stereoisomers was confirmed, the potency of each stereoisomer against HUVEC proliferation and fungal growth was determined (FIG. 7). HUVEC were incubated with drug or vehicle alone for 24 hours and then pulsed for 6 hours with [^3H]-thymidine, the incorporation of which was taken as a readout of cell proliferation. […]

[3] = tested on: C. neoformans H99; assay: Fungal Susceptibility Assay (MIC80), C. neoformans; format: cell-based
From the text: as §2
Fungi were grown overnight in 5 mL YES supplemented 225 mg/L adenine, histidine, leucine, uracil, and lysine (supplemented YES) at 30° C. with shaking. Cultures were diluted to 0.01 OD600 in RPMI (with L-glutamine, without sodium bicarbonate) which was supplemented with 2% glucose, 225 mg/L adenine, histidine, methionine, leucine, uracil, and lysine and buffered with 165 mM MOPS to 7.0 (complete RPMI). This solution was then further diluted 190-fold in complete RPMI in 96-well plates containing test compounds in a final volume of 150 μL. When practical, the intermediate RPMI dilution was bypassed and the overnight cultures were directly diluted to the appropriate OD600 in the RPMI solution that was added to the 96-well plates. Two-fold serial dilutions of the compounds were tested starting at 4 ug/mL with each well containing 0.125% vehicle (DMSO). The plates were incubated in a humidified environment at 30° C. with shaking for 30 hours except for experiments with C. neoformans which was incubated for 54 h. Abs600 was measured using a plate reader (Bio-Tek Synergy HT) after vigorous shaking for 45 seconds to resuspend the cells. The background absorbance from noninoculated wells was subtracted and the absorbance of test wells was divided by that of wells treated with vehicle alone. The percent of remaining growth for each drug concentration was averaged over 2-3 independent experiments, each with two technical replicates, and the minimum concentration giving 80% inhibition (MIC80) was determined.
as §1

[4] = tested on: HUVEC; assay: HUVEC proliferation assay ([3H]-thymidine incorporation); format: cell-based, human; settings: for IC50: Homo sapiens, HUVEC
Experimental: (§3) HUVEC were purchased from Cambrex Biosciences (Walkersvilie, Md.) and maintained in EGM-2 media (Cambrex) which contains VEGF, bFGF, and EGF. LPDS were purchased from Intracell. BAEC and Hela cells were maintained in DMEM media containing 10% FBS. Jurkat cells were maintained in RPMI media containing 10% FBS. In a typical experiment 5,000-10,000 cells/well in 0.2 mL EGM-2 media were allowed to adhere for 8 h and then incubated with drug for 36 h. Cells were pulsed with 1 μCi [^3H]-thymidine for 8 h (MP Biomedicals, 6.7 Ci/mmol), and harvested using trypsin onto glass fiber filters (Wallac, Turku, Finland). The readout was performed on a Perkin Elmer MicroBeta plate reader. Cells used were under five passages.
Endothelial cells form the inner lining of all blood vessels and constitute an essential part of new as well as pre-existing blood vessels. An endothelial cell proliferation assay was utilized to screen our clinical drug library. The screen was carried out in 96-well plates with each drug at a final concentration of 10 μM. Thus, HUVEC were incubated with drugs for 36 h and proliferation was measured by following incorporation of [3H]-thymidine for the final 8 h. The preliminary screen identified 210 existing drugs with at least 50% inhibition at 10 μM, which belong to multiple drug classes (FIG. 1a).

[5] = tested on: HUVEC; assay: HUVEC cell cycle analysis (propidium iodide, FACS); format: cell-based, human
From the text: To delineate the mechanism of inhibition of endothelial cell proliferation by itraconazole, the effect on the cell cycle progression of HUVEC by fixing and staining cells with propidium iodide followed by FACS analysis was examined.

[6] = tested on: human foreskin fibroblasts (HFF); assay: Human foreskin fibroblast proliferation (Calcein-AM); format: cell-based; settings: 96 h with drug
Experimental: Human foreskin fibroblast (HFF) cells were cultured at passage 2 in DMEM low glucose, 10% fetal bovine serum, and 1% penicillin-streptomycin. Experiments were performed with 2,500 cells/well in 0.2 mL and incubated for 96 h with drug. Plates containing cells were washed once with PBS, incubated with 1 μM Calcein-AM (Molecular Probes) in PBS for 4 h, and read in a fluorescent plate reader. IC50 values were determined using four-parameter logarithmic analysis with GraphPad Prism and are presented as mean±s.e.m. for triplicate experiments.

[7] = tested on: BAEC; assay: BAEC proliferation with or without free cholesterol ([3H]-thymidine); format: cell-based, bovine; settings: for IC50: Bos taurus, DMEM 10% LPDS, 36 h
Experimental: BAEC were incubated in DMEM, 10% lipoprotein deficient serum (LPDS) with indicated concentrations of itraconazole (a) azalanstat (b) or TNP-470 (c) either alone or in combination with 40 μg/ml free cholesterol for 36 h. Cells were then pulsed with 1 μCi [^3H]-thymidine for 8 h before they are harvested for scintillation counting.
as §3
A hallmark of inhibitors of 14DM is that their potencies are dependent on the levels of cholesterol in cell culture medium. Thus, the potencies of both azalanstat and itraconazole in cell culture media either containing or lacking cholesterol was determined.

[8] = tested on: BAEC; assay: Cell cycle progression of BAEC; format: cell-based, bovine
[9] = tested on: new blood vessel formation in Matrigel plugs; assay: Mouse Matrigel model of angiogenesis; format: in vivo; settings: mice, 37.5 mg/kg i.p. once daily, Matrigel with VEGF and bFGF, 10 days
Experimental: To determine whether itraconazole inhibited angiogenesis in vivo, itraconazole was tested in a mouse Matrigel model. […] Female athymic nude 5-week old, 25-30 g mice were purchased from NO and treated in accordance with standard procedures. In all animal experiments the i.v. formulation of itraconazole was obtained from the Johns Hopkins Hospital Pharmacy. Control mice were treated with vehicle (40% hydroxypropyl-β-cyclodextrin, 2.5% propylene glycol, pH 4.5). Mice were pretreated for three days and then implanted subcutaneously with 0.5 mL of Matrigel (BD Biosciences) containing 100 ng/mL VEGF and 150 ng/mL bFGF. Drug treatment was continued daily for 10 days, mice were sacrificed, and plugs were harvested, fixed in neutral buffered formalin, and processed for histology using MAS-trichrome staining. A cross section of the entire Matrigel plug was photographed at 100× and erythrocyte-filled blood vessels were counted per field in a blinded manner. P-values comparing itraconazole versus vehicle treated mice were determined using the two-tailed Student's T-test; and the data are presented as mean±s.e.m.

[10] = 40 μg/ml free cholesterol, read-out: IC50, endothelial cell proliferation in the presence of cholesterol
[11] = no cholesterol, read-out: IC50, endothelial cell proliferation in the absence of cholesterol

## CC[C@@H](C)n1ncn(-c2ccc(N3CCN(c4ccc(OC[C@@H]5CO[C@@](Cn6cncn6)(c6ccc(Cl)cc6Cl)O5)cc4)CC3)cc2)c1=O [Compound 23b, 4-(4-(4-(4-(((2S,4R)-2-((1H-1,2,4-triazol-1-yl)methyl)-2-(2,4-dichlorophenyl)-1,3-dioxolan-4-yl)methoxy)phenyl)piperazin-1-yl)phenyl)-1-((R)-sec-butyl)-1H-1,2,4-triazol-5(4H)-one]
[1]
  potency against HUVEC proliferation: greatest antiangiogenic potential

## CC[C@H](C)n1ncn(-c2ccc(N3CCN(c4ccc(OC[C@H]5CO[C@@](Cn6cncn6)(c6ccc(Cl)cc6Cl)O5)cc4)CC3)cc2)c1=O [Compound 23e, 4-(4-(4-(4-(((2S,4S)-2-((1H-1,2,4-triazol-1-yl)methyl)-2-(2,4-dichlorophenyl)-1,3-dioxolan-4-yl)methoxy)phenyl)piperazin-1-yl)phenyl)-1-((S)-sec-butyl)-1H-1,2,4-triazol-5(4H)-one]
[2]
  antifungal potency: roughly as potent as the cis-diastereomers; also recorded: about as potent as the cis diastereomers
[3]
  fold less potent than 23g and 23h: 2 fold
  fold less potent than the best inhibitor: 32 fold

## CCC(C)n1ncn(-c2ccc(N3CCN(c4ccc(OC[C@H]5CO[C@](Cn6cncn6)(c6ccc(Cl)cc6Cl)O5)cc4)CC3)cc2)c1=O (single isomer, unassigned; stereoisomer 4) [4S-cis stereoisomer]
[4]
  IC50: 1100 ± 130 nM
[5]
  effect on HUVEC cell cycle progression: potently inhibits HUVEC cell cycle progression at the G1/S transition

## CC[C@H](C)n1ncn(-c2ccc(N3CCN(c4ccc(OC[C@@H]5CO[C@@](Cn6cncn6)(c6ccc(Cl)cc6Cl)O5)cc4)CC3)cc2)c1=O [Compound 23a, 4-(4-(4-(4-(((2S,4R)-2-((1H-1,2,4-triazol-1-yl)methyl)-2-(2,4-dichlorophenyl)-1,3-dioxolan-4-yl)methoxy)phenyl)piperazin-1-yl)phenyl)-1-((S)-sec-butyl)-1H-1,2,4-triazol-5(4H)-one]
[1]
  potency against HUVEC proliferation: greatest antiangiogenic potential
[1]; 24 h with drug
  difference in potency between 23a and 23f (most and least potent), HUVEC proliferation: greater than 4 fold

## CC[C@@H](C)n1ncn(-c2ccc(N3CCN(c4ccc(OC[C@H]5CO[C@@](Cn6cncn6)(c6ccc(Cl)cc6Cl)O5)cc4)CC3)cc2)c1=O [Compound 23f, 4-(4-(4-(4-(((2S,4S)-2-((1H-1,2,4-triazol-1-yl)methyl)-2-(2,4-dichlorophenyl)-1,3-dioxolan-4-yl)methoxy)phenyl)piperazin-1-yl)phenyl)-1-((R)-sec-butyl)-1H-1,2,4-triazol-5(4H)-one]
[2]
  antifungal potency: roughly as potent as the cis-diastereomers; also recorded: about as potent as the cis diastereomers
[3]
  fold less potent than 23g and 23h: 2 fold
  fold less potent than the best inhibitor: 32 fold

## CCC(C)n1ncn(-c2ccc(N3CCN(c4ccc(OC[C@@H]5CO[C@@](Cn6cncn6)(c6ccc(Cl)cc6Cl)O5)cc4)CC3)cc2)c1=O (single isomer, unassigned; diastereomer 4) [4R-cis diastereomer]
[4]
  fold more potent than the 4S-cis stereoisomer, HUVEC proliferation: about 20 fold
  IC50: 56 ± 10 nM
[1]
  potency against HUVEC proliferation: slightly more potent than the cis-4S isomer

## CCC(C)n1ncn(-c2ccc(N3CCN(c4ccc(OCC5COC(Cn6cncn6)(c6ccc(Cl)cc6Cl)O5)cc4)CC3)cc2)c1=O (racemic) [Itraconazole]
[4]
  IC50: 160 nM
[6]
  IC50: > 20000 nM
[7]; [10]
  IC50: 230 nM
[7]; [11]
  IC50: 44 nM
[8]; Cholesterol
  percentage of cells in G1: 66.2%
  percentage of cells in G2/M: 12.0%
  percentage of cells in S: 21.2%
[8]; Control (no added cholesterol)
  percentage of cells in G1: 77.0%
  percentage of cells in G2/M: 12.0%
  percentage of cells in S: 10.5%
[9]
  decrease in new blood vessel formation compared to vehicle-treated controls: 67.5%

## CO[C@@H]1[C@H](OC(=O)NC(=O)CCl)CC[C@]2(CO2)[C@H]1[C@@]1(C)O[C@@H]1CC=C(C)C [TNP-470]
[7]; with or without 40 μg/ml free cholesterol
  potency on endothelial cell proliferation in absence versus presence of cholesterol: roughly equal potency

## Nc1ccc(SC[C@@H]2CO[C@](CCc3ccc(Cl)cc3)(Cn3ccnc3)O2)cc1 [Azalanstat]
[7]; [10]
  IC50: 1200 nM
[7]; [11]
  IC50: 310 nM
[8]; Cholesterol
  percentage of cells in G1: 70.2%
  percentage of cells in G2/M: 10.0%
  percentage of cells in S: 19.4%
[8]; Control (no added cholesterol)
  percentage of cells in G1: 74.5%
  percentage of cells in G2/M: 8.8%
  percentage of cells in S: 16.8%
[5]
  effect on HUVEC cell cycle progression: blocked the cell cycle progression
